Two substances from publication PMC5387044, “Analogs of the Frog-skin Antimicrobial Peptide Temporin 1Tb Exhibit a Wider Spectrum of Activity and a Stronger Antibiofilm Potential as Compared to the Parental Peptide” (Frontiers in Chemistry, 2017) can be followed below.

Marks after values point to notes of the source that are not given here. No end group written: not given here.

For test [1], the system named is P. aeruginosa ATCC 27853. As to conditions: for FIC index / MIC: ATCC 27853, 24 h.
Test [2] relates to S. epidermidis ATCC 35984. As to conditions: ATCC 35984, 24 h, pH 7.4.
The subject of test [3] is P. aeruginosa ATCC 27853 biofilm formation.
Test [4] has as its system S. aureus ATCC 33591. It counts as cell-based, Staphylococcus aureus. As to conditions: pH 7.4.
The subject of test [5] is S. aureus ATCC 33591 biofilm formation. It counts as cell-based, Staphylococcus aureus.
Test [6] has as its system K. pneumoniae ATCC BAA-1706. As to conditions: ATCC BAA-1706, 24 h, pH 7.4.
Test [7] deals with S. aureus ATCC 33591. As to conditions: ATCC 33591, 24 h, pH 7.4.
Test [8] deals with preformed biofilms of S. aureus ATCC 33591. The test is described as follows: Biofilm treatment assay on preformed (24-h old) biofilms, CFU counting, alone and with EDTA. In kind it is cell-based, Staphylococcus aureus. As to conditions: 30 μM peptide alone. Here is the method:
The activity of TB, TB_L1FK, and TB_KKG6A against preformed (24-h old) biofilms of S. aureus and P. aeruginosa was also investigated. Briefly, biofilms were allowed to form for 24 h in flat-bottom 96-well microplates in the absence of antimicrobial compounds. Established biofilms were then washed three times with PBS in order to remove non-adherent cells and incubated in fresh BPM with different concentrations of the three peptides (from 15 to 120 μM). After 24 h of incubation, the viability of biofilm-associated cells was evaluated by CFU counting. For this purpose, biofilms were washed three times with PBS and bacterial cells were detached from the surface of the wells with a pipette tip, vigorously vortexed and plated in serial dilutions on TSA.
TB_L1FK and TB_KKG6A were combined with EDTA in order to enhance their activity against preformed biofilms of S. aureus and P. aeruginosa. […] Following incubation, the antibiofilm effect was evaluated in terms of number of biofilm-associated viable cells as previously described.
Figure 4 Activity of TB_L1FK and TB_KKG6A, used alone and in combination with EDTA, against preformed (24-h old) biofilms of S. aureus ATCC 33591 (A,B) and P. aeruginosa ATCC 27853 (C,D). The antibiofilm activity of the peptides, EDTA and the peptide-EDTA combinations was evaluated by CFU counting after 24 h of incubation. […]

Test [9] has as its system human non-small-cell lung adenocarcinoma A549 cells. As to conditions: 24 h.
The test system of test [10] is P. aeruginosa ATCC 27853. It counts as cell-based, Pseudomonas aeruginosa. As to conditions: pH 7.4.
For test [11], the system named is human peripheral blood mononuclear cells (PBMCs). As to conditions: 24 h.
The subject of test [12] is S. aureus ATCC 33591. As to conditions: for MIC: ATCC 33591, 24 h.
Test [13] concerns P. aeruginosa ATCC 27853. As to conditions: ATCC 27853, 24 h, pH 7.4.
Test [14] deals with preformed biofilms of P. aeruginosa ATCC 27853. The test is described as follows: Biofilm treatment assay on preformed (24-h old) biofilms, CFU counting, alone and with EDTA. In kind it is cell-based, Pseudomonas aeruginosa. As to conditions: 30 μM peptide + 2.5 mM EDTA.

On to FLPIVGLLKSLLK-NH2 [TB_L1FK], for which, in the test on P. aeruginosa ATCC 27853 [1], the “Concentration of the peptide resulting in a synergistic effect” value is 0.25 (15 μM)^b. Besides, the FIC index with P. aeruginosa ATCC 27853 [1] is 0.25 (15 μM)^b; in the test with S. aureus ATCC 33591 [12], above 0.5. For the same substance, the MIC (in general, the lowest concentration found to suppress growth) with P. aeruginosa ATCC 27853 [1] was 120 µM; with S. aureus ATCC 33591 [12], 15 µM. In addition, the MBC (usually the lowest tested concentration that kills the bacteria rather than only halting them) is 1.5 µM in [2], 6 µM in test [6], 6 µM with S. aureus ATCC 33591 [7] and 6 µM in the test on P. aeruginosa ATCC 27853 [13]. Further, the “Inhibitory activity on forming biofilms” value in test [3] is “no inhibitory activity”. The “Time to bactericidal effect (reduction of at least 3 Log10 in viable bacteria)” value in the test with S. aureus ATCC 33591 [4] is given as at most 30 min. Further, the “Reduction of biofilm formation vs untreated control” value in [5] was “more than 50%”. The “Decrease in the number of biofilm-associated viable cells vs untreated biofilms” value in test [8] was “approximately 2 Log10”. The 50% inhibitory concentration (IC50) (commonly the midpoint of a concentration-inhibition curve) in test [9] was determined as 59 µM; in [11] it was 52 µM. In addition, in the test with P. aeruginosa ATCC 27853 [10], the “Time to complete eradication of the starting bacterial inoculum” value is at most 5 min. Also, the “Reduction in CFU number of peptide-EDTA combination compared to the peptide used alone” value in [14] is “approximately 1 Log10”.

In the case of KKLLPIVANLLKSLL-NH2 [TB_KKG6A], the “Concentration of the peptide resulting in a synergistic effect” value with P. aeruginosa ATCC 27853 [1] was 0.25 (3.75 μM). Moreover, the FIC index is given as 0.25 (3.75 μM) in the test on P. aeruginosa ATCC 27853 [1] and above 0.5 in the test on S. aureus ATCC 33591 [12]. Moreover, the MIC was 30 µM in the test with P. aeruginosa ATCC 27853 [1] and 7.5 µM in the test on S. aureus ATCC 33591 [12]. The MBC in test [2] was 1.5 µM; in test [6] it was 3 µM; against S. aureus ATCC 33591 [7], 1.5 µM; with P. aeruginosa ATCC 27853 [13] it was 3 µM. Moreover, the “Inhibition of biofilm biomass” value in test [3] (ATCC 27853, 24 h, 24 μM) turned out to be 80%. Also, the “Time to bactericidal effect (reduction of at least 3 Log10 in viable bacteria)” value with S. aureus ATCC 33591 [4] is given as at most 60 min. In test [5], the “Reduction of biofilm formation vs untreated control” value is on record as “more than 50%”. In addition, the “Decrease in the number of biofilm-associated viable cells vs untreated biofilms” value in [8] is “approximately 2 Log10”. Besides, the IC50 in test [9] came out at 16 µM; in [11], 49 µM. In addition, the “Time to bactericidal effect” value in the test on P. aeruginosa ATCC 27853 [10] stood at 15 min. Moreover, the “Reduction in CFU number of peptide-EDTA combination compared to the peptide used alone” value in [14] is given as “approximately 1 Log10”.
